Legend:
Assay in all cases: relative viability (nuclei count vs DMSO), 5 days (fraction); higher = more cells survive
IPA-3 + OSI-027 = compound: C1=CC=C2C(=C1)C=CC(=C2SSC3=C(C=CC4=CC=CC=C43)O)O [IPA-3] + COc1cccc2cc(-c3nc([C@H]4CC[C@H](C(=O)O)CC4)n4ncnc(N)c34)[nH]c12 [OSI-027] (partner 0.5 µM)
Method in brief: (§1)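 Each reported value is a median over duplicate plates. It expresses relative viability: treated-well nuclei count divided by vehicle-well nuclei count. Lung cancer cell lines in 1536-well plates were dosed by pin tool a day after seeding, alone with one drug or with a fixed anchor-drug dose plus five library-drug doses (not always all listed) in √10 steps, and nuclei were counted after 5 days.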

IPA-3 + Decitabine = compound: C1=CC=C2C(=C1)C=CC(=C2SSC3=C(C=CC4=CC=CC=C43)O)O [IPA-3] + Nc1ncn([C@H]2C[C@H](O)[C@@H](CO)O2)c(=O)n1 [Decitabine] (partner 2 µM)
Method in brief: as §1

Doramapimod + Navitoclax = compound: Cc1ccc(-n2nc(C(C)(C)C)cc2NC(=O)Nc2ccc(OCCN3CCOCC3)c3ccccc23)cc1 [Doramapimod] + CC1(C)CCC(c2ccc(Cl)cc2)=C(CN2CCN(c3ccc(C(=O)NS(=O)(=O)c4ccc(N[C@H](CCN5CCOCC5)CSc5ccccc5)c(S(=O)(=O)C(F)(F)F)c4)cc3)CC2)C1 [Navitoclax] (partner 0.5 µM)
Method in brief: as §1

Doramapimod + AZD7762 = compound: Cc1ccc(-n2nc(C(C)(C)C)cc2NC(=O)Nc2ccc(OCCN3CCOCC3)c3ccccc23)cc1 [Doramapimod] + NC(=O)Nc1cc(-c2cccc(F)c2)sc1C(=O)N[C@H]1CCCNC1 [AZD7762] (partner 0.2 µM)
Method in brief: as §1

Cell Line	relative viability (IPA-3 + OSI-027; first compound 0.2 µM)	relative viability (IPA-3 + OSI-027; first compound 0.6325 µM)	relative viability (IPA-3 + OSI-027; first compound 2 µM)	relative viability (IPA-3 + OSI-027; first compound 6.325 µM)	relative viability (IPA-3 + OSI-027; first compound 20 µM)	relative viability (IPA-3 + Decitabine; first compound 0.2 µM)	relative viability (IPA-3 + Decitabine; first compound 0.6325 µM)	relative viability (IPA-3 + Decitabine; first compound 2 µM)	relative viability (IPA-3 + Decitabine; first compound 6.325 µM)	relative viability (IPA-3 + Decitabine; first compound 20 µM)	relative viability (Doramapimod + Navitoclax; first compound 0.02 µM)	relative viability (Doramapimod + Navitoclax; first compound 0.06325 µM)	relative viability (Doramapimod + Navitoclax; first compound 0.2 µM)	relative viability (Doramapimod + Navitoclax; first compound 0.6325 µM)	relative viability (Doramapimod + Navitoclax; first compound 2 µM)	relative viability (Doramapimod + AZD7762; first compound 0.02 µM)	relative viability (Doramapimod + AZD7762; first compound 0.06325 µM)	relative viability (Doramapimod + AZD7762; first compound 0.2 µM)	relative viability (Doramapimod + AZD7762; first compound 0.6325 µM)	relative viability (Doramapimod + AZD7762; first compound 2 µM)
LCLC-97TM1	0.403	0.521	0.436	0.498	0.502	0.242	0.216	0.211	0.196	0.235	0.372	0.434	0.525	0.51	0.371	0.323	0.328	0.289	0.168	0.304
NCI-H3122	1.13	0.951	0.948	1.11	0.896	0.517	0.467	0.362	0.459	0.474	1.03	0.992	1	1.09	0.914	1.11	1.09	1.05	1	1.12
NCI-H1395	0.641	0.705	0.547	0.621	0.692	0.688	0.666	0.728	0.687	0.714	1.17	1.12	1.1	1.12	1.06	0.392	0.39	0.355	0.443	0.349
NCI-H1651	0.71	0.73	0.695	0.804	0.706	0.699	0.596	0.631	0.644	0.549	0.624	0.911	0.996	1.04	1.06	0.441	0.478	0.435	0.441	0.356
HARA	0.605	0.45	0.479	0.396	0.606	0.474	0.517	0.544	0.578	0.621	1.1	1.13	1.12	1.11	1.07	0.341	0.235	0.397	0.536	0.213
NCI-H1944	0.454	0.394	0.396	0.479	0.444	0.468	0.41	0.456	0.481	0.412	1	1.11	1.05	1.17	1.08	0.468	0.62	0.341	0.647	0.312
NCI-H2347	0.379	0.379	0.388	0.351	0.398	0.629	0.611	0.657	0.622	0.603	0.947	0.726	0.793	0.761	0.821	0.733	0.831	0.711	0.757	0.781
201T	0.741	0.683	–	0.743	0.755	0.888	0.861	0.839	0.868	0.947	1.27	1.24	1.2	1.29	1.28	0.516	0.562	0.447	0.504	0.341
PC-14	1.54	0.778	0.749	0.766	1.17	0.29	0.152	0.226	0.187	0.144	1.02	1.02	0.935	1.09	0.799	0.521	0.539	0.353	0.378	0.325
NCI-H727	0.851	0.703	0.546	0.613	0.634	0.783	0.916	0.71	0.867	0.997	0.467	0.337	0.501	0.481	0.382	0.605	0.576	0.642	0.487	0.528
NCI-H1792	0.789	0.718	0.641	0.711	0.792	0.72	0.46	–	0.492	0.568	0.601	0.809	0.672	0.617	0.577	0.43	0.89	0.842	0.618	0.434
ChaGo-K-1	0.708	0.551	0.574	0.603	0.628	0.536	0.479	0.503	0.509	0.487	1.07	1.25	1.24	–	1.01	0.884	0.846	0.894	0.779	0.768
HOP-62	0.985	0.808	0.937	0.783	0.616	0.193	0.213	0.231	0.229	0.235	1.1	1.1	1.17	1.04	1.05	0.629	0.676	0.585	0.647	0.651
NCI-H1915	0.567	0.564	0.626	0.582	0.61	0.277	0.279	0.248	0.262	0.245	0.843	0.838	0.85	0.801	0.761	0.694	0.734	0.771	0.82	0.664
BEN	0.309	0.295	0.288	0.302	0.333	0.612	0.824	0.758	0.712	0.665	0.0531	0.0454	0.0875	0.0584	0.0743	0.58	0.724	0.72	0.597	0.681
NCI-H1437	1.1	0.942	0.68	0.989	1.17	0.601	0.515	0.543	0.596	0.581	1.09	1.1	1.16	1.09	1.05	1.13	1.16	1.23	1.05	1.08

— the supplement of paper PMC10307832
